Assay results published in patent EP1202975B1, “SUBSTITUTED POLYCYCLIC ARYL AND HETEROARYL PYRAZINONES USEFUL FOR SELECTIVE INHIBITION OF THE COAGULATION CASCADE” (Pharmacia Corporation, priority 1999, dated 2000).
Where two headings read alike, the source gives them in different places.

Legend:
Human factor Xa = Human factor Xa (Homo sapiens, UniProt P00742); test: Xa Assay; conditions: for IC50 or % Inhibition Factor Xa (30 µM): % inhibition at 30 µM
TF-VIIa = target: T1, TF-VIIa (Homo sapiens, UniProt P08709); test: TF-VIIa Assay; type: biochemical
T1 construct: 2nM recombinant human factor VIIa; purchased American Diagnostica, Greenwich CT; host or cells: soluble TF made in house in E. coli
T1 sequence (P08709 213-466 limits assumed): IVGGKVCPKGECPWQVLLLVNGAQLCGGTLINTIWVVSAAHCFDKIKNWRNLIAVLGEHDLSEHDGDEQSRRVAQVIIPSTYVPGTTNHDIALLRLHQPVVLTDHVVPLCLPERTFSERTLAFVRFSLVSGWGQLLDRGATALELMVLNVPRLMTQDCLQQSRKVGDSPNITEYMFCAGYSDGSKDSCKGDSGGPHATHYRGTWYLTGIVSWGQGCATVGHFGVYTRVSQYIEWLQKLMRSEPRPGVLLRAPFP
T1 sequence (P08709 61-212 limits assumed): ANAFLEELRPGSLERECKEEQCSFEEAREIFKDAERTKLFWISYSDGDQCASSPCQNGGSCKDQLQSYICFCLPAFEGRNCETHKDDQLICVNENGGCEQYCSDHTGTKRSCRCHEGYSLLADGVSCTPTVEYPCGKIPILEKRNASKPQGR
T1 sequence (P13726 33-251 partner limits assumed): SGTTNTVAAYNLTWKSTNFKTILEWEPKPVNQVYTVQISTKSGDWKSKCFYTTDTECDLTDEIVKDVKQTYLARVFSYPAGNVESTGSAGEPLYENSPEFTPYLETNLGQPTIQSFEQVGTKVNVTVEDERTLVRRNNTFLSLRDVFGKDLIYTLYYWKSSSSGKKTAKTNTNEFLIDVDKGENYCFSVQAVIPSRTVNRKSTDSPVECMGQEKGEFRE

[1] = read-out: IC50 or % Inhibition Factor Xa (30 µM), cells given as a plain number (IC50)
[2] = cells given as a plain number (IC50); read-out: IC50 or % Inhibition TF-VIIa (30 µM)
[3] = read-out: IC50 or % Inhibition TF-VIIa (30 µM); cells given as a plain number (IC50)

Chain of Human factor Xa (P00742 235-488 limits assumed): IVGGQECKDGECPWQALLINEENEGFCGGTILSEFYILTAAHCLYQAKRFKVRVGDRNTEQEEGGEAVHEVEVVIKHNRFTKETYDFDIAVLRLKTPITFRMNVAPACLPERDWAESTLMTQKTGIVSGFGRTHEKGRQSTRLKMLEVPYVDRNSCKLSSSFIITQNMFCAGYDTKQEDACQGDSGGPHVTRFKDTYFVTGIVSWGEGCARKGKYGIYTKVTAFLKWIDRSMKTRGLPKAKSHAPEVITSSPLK
Chain of Human factor Xa (P00742 41-179 limits assumed): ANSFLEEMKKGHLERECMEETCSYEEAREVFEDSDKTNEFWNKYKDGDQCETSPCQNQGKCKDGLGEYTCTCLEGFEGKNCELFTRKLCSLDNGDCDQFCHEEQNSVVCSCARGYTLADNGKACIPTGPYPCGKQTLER

IC50 (Human factor Xa; [1]) [µM]	IC50 (TF-VIIa; [2]) [µM]	IC50 or % Inhibition Factor Xa (30 µM) (Human factor Xa)	Compound	further results
> 30	1.7		CC(C)(C)CCNc1nc(Cl)c(-c2ccccc2)n(CC(=O)NCc2ccc(C(=N)N)cc2)c1=O [1522-18]	
> 30			N=C(N)c1ccc(CNC(=O)Cn2c(-c3ccccc3Cl)c(Cl)nc(NCc3ccccc3)c2=O)cc1 [1515-04]	IC50 (TF-VIIa; [3]): 5.2 µM
> 30	0.26		CNc1cccc(-c2c(Cl)nc(NC(C)C)c(=O)n2CC(=O)NCc2ccc(C(=N)N)cc2)c1 [compound 96]	
	91		N=C(N)NCCCNC(=O)Cn1c(-c2ccccc2)cnc(NCCc2ccccc2)c1=O [Example 11]	IC50 (Human factor Xa): > 100 µM
	4.13	20%	N=C(N)c1ccc(CNC(=O)Cn2c(-c3ccccc3)cnc(NC(=O)Nc3cc(Cl)cc(Cl)c3)c2=O)cc1 [Example 108]	
> 30			N=C(N)c1ccc(CNC(=O)Cn2c(-c3ccc(F)cc3)c(Cl)nc(NC3CCC3)c2=O)cc1 [1515-19]	IC50 (TF-VIIa; [3]): 24.2 µM
	3.25	13%	CC(C)Nc1nc(Cl)c(-c2ccc(Cl)nc2)n(CC(=O)NCc2ccc(C(=N)N)cc2F)c1=O [compound 74]	
> 30	3.03		Cc1cccc(-c2cnc(NCCc3ccccc3)c(=O)n2CC(=O)NCc2ccc(C(=N)N)cc2)c1 [compound 84]	
	> 100		N=C(N)NCCCCNC(=O)Cn1c(-c2ccc3c(c2)OCO3)cnc(NCCc2ccccc2)c1=O [Example 16]	IC50 (Human factor Xa): > 100 µM
	0.21	9%	CC(C)Nc1nc(Cl)c(-c2cccnc2)n(CC(=O)NCc2ccc(C(=N)N)cc2)c1=O [compound 75]	
	> 100		N=C(N)NCCCCNC(=O)Cn1c(-c2ccccc2)cnc(NCCc2ccccc2)c1=O [Example 12]	IC50 (Human factor Xa): > 100 µM
	1.29	29%@30	N=C(N)c1ccc(CNC(=O)Cn2c(-c3cccc4ccccc34)c(Cl)nc(NCCc3ccccc3)c2=O)cc1 [compound 80]	
	0.07	26%@30	N=C(N)c1ccc(CNC(=O)Cn2c(-c3cccc(N)c3)c(Cl)nc(NCCc3ccccc3)c2=O)cc1 [compound 86]	
	1.47	0%	N=C(N)c1ccc(CNC(=O)Cn2c(-c3ccccc3)c(Cl)nc(NCCc3ccncc3)c2=O)cc1 [1471-13]	
	0.88	42%@30	Cc1cccc(-c2cnc(NCCc3ccccc3)c(=O)n2CC(=O)NCc2ccc(C(=N)N)cc2)c1 [compound 85]	
		13%@30	N=C(N)c1ccc(CNC(=O)Cn2c(-c3ccc(-c4ccccc4)cc3)c(Cl)nc(NCCc3ccc(Cl)cc3)c2=O)cc1 [Example 22]	IC50 or % Inhibition TF-VIIa (30 µM) (TF-VIIa; % inhibition at 30 µM): 0%@30
	5.8	4%	N=C(N)c1ccc(CNC(=O)Cn2c(-c3ccccc3)c(Cl)nc(NC3CCCCCC3)c2=O)cc1 [1507-29]	
	13.8	0%	N=C(N)c1ccc(CNC(=O)Cn2c(-c3ccccc3)c(Cl)nc(NC3CCS(=O)(=O)C3)c2=O)cc1 (centres unmarked) [1507-36]	
	> 100		N=C(N)NCCCCCNC(=O)Cn1c(-c2ccccc2)cnc(NCCc2ccccc2)c1=O [Example 13]	IC50 (Human factor Xa): > 100 µM
> 30	0.14		COCCNc1nc(Cl)c(-c2cccc(N)c2)n(CC(=O)NCc2ccc(C(=N)N)cc2)c1=O [1526-25]	
> 30			N=C(N)c1ccc(CNC(=O)Cn2c(-c3ccccc3)c(Cl)nc(NCc3ccccc3C(F)(F)F)c2=O)cc1 [1507-15]	IC50 (TF-VIIa; [3]): 12 µM
	0.57	20%	N=C(N)NCCNc1nc(Cl)c(-c2ccccc2)n(CC(=O)NCc2ccc(C(=N)N)cc2)c1=O [Example 48]	

IC50 (Human factor Xa; [1]) [µM]	IC50 (TF-VIIa; [2]) [µM]	IC50 or % Inhibition Factor Xa (30 µM) (Human factor Xa)	Compound	further results
		14%	N=C(N)c1ccc(CNC(=O)Cn2c(-c3cccc(N)c3)c(Cl)nc(NC3CCC3)c2=O)c(F)c1 [1543-39]	IC50 (TF-VIIa; cells without % sign: IC50; read-out: IC50 or % Inhibition TF-VIIa (30 µM)): 0.04 µM
> 30	0.07		CC(C)(C)Nc1nc(Cl)c(-c2cccc(N)c2)n(CC(=O)NCc2ccc(C(=N)N)cc2)c1=O [compound 93]	
	0.66		N=C(N)NCCCNc1nc(Cl)c(-c2ccccc2)n(CC(=O)NCc2ccc(C(=N)N)cc2)c1=O [Example 47]	IC50 (Human factor Xa): 10.6 µM
	0.3	11%@30	CN(C)c1cccc(-c2c(Cl)nc(NCCc3ccccc3)c(=O)n2CC(=O)NCc2ccc(C(=N)N)cc2)c1 [Example 103]	
> 30			N=C(N)c1ccc(CNC(=O)Cn2c(-c3ccccc3)c(Cl)nc(NCCc3ccc(Br)cc3)c2=O)cc1 [1507-06]	IC50 (TF-VIIa; [3]): 20 µM
> 30			N=C(N)c1ccc(CNC(=O)Cn2c(-c3cccc(Br)c3)c(Cl)nc(NCCc3ccccc3)c2=O)cc1 [1515-34]	IC50 (TF-VIIa; [3]): 4.4 µM
	0.03	0%	CC(C)Nc1nc(Cl)c(-c2cc(N)ccc2F)n(CC(=O)NCc2ccc(C(=N)N)cc2F)c1=O [compound 73]	
	0.59		N=C(N)c1ccc(CNC(=O)Cn2c(-c3ccccc3)c(Cl)nc(NCc3cccc(C(=N)N)c3)c2=O)cc1 [Example 52]	IC50 (Human factor Xa): 24 µM
	0.02	16%@30	N=C(N)c1ccc(CNC(=O)Cn2c(-c3cccc(N)c3)c(Cl)nc(NC3CCC3)c2=O)cc1 [compound 90]	
> 30			CC(C)C(C)Nc1nc(Cl)c(-c2ccccc2)n(CC(=O)NCc2ccc(C(=N)N)cc2)c1=O (centres unmarked) [1522-15]	IC50 (TF-VIIa; [3]): 0.54 µM
> 30			Cc1ccc(CCNc2nc(Cl)c(-c3ccccc3)n(CC(=O)NCc3ccc(C(=N)N)cc3)c2=O)cc1 [1507-45]	IC50 (TF-VIIa; [3]): 7.3 µM
> 30			CC[C@@H](C)Nc1nc(Cl)c(-c2cccc(N)c2)n(CC(=O)NCc2ccc(C(=N)N)cc2)c1=O [1526-16]	IC50 (TF-VIIa; [3]): 0.04 µM
	0.053	18%@30	N=C(N)c1ccc(CNC(=O)Cn2c(-c3cccc(N)c3)cnc(NC3CCC3)c2=O)cc1 [compound 92]	
> 30	0.75		Cc1cccc(-c2cnc(NCCc3ccccc3)c(=O)n2CC(=O)NCc2ccc(C(=N)N)cc2)c1 [compound 83]	
	0.1		N=C(N)NCCC[C@H](NC(=O)Cn1c(-c2ccccc2)cnc(NCCc2ccccc2)c1=O)C(=O)c1nccs1 [Example 6]	IC50 (Human factor Xa): 1 µM
> 30			COc1cccc(-c2c(Cl)nc(NCc3ccccc3)c(=O)n2CC(=O)NCc2ccc(C(=N)N)cc2)c1 [1515-05]	IC50 (TF-VIIa; [3]): 4 µM
	0.2		N=C(N)NCCC[C@H](NC(=O)Cn1c(Cc2ccccc2)cnc(NCCc2ccccc2)c1=O)C(=O)c1nccs1 [Example 7]	IC50 (Human factor Xa): 3 µM
> 30			N=C(N)c1ccc(CNC(=O)Cn2c(-c3ccc(F)cc3)c(Cl)nc(NCc3ccccc3)c2=O)cc1 [1515-07]	IC50 (TF-VIIa; [3]): 14.2 µM
> 30	2.52		N=C(N)c1ccc(CNC(=O)Cn2c(-c3cccc([N+](=O)[O-])c3)c(Cl)nc(NCCc3ccccc3)c2=O)cc1 [compound 77]	
> 30	0.84		CC(C)CCNc1nc(Cl)c(-c2ccccc2)n(CC(=O)NCc2ccc(C(=N)N)cc2)c1=O [1522-14]	
> 30			CCC(C)Nc1nc(Cl)c(-c2cccc(N)c2)n(CC(=O)NCc2ccc(C(=N)N)cc2)c1=O (centres unmarked) [1526-14]	IC50 (TF-VIIa; [3]): 0.04 µM
